In publication PMC3303154 (2011):
pIC50: −log10 of the molar value.

Biological target: 20S proteasome (chymotrypsin-like activity) (Homo sapiens, UniProt P28074)
Experiment: fluorogenic Suc-LLVY-AMC peptidase assay with purified […] proteasome
Type: biochemical

Chain of 20S proteasome (chymotrypsin-like activity) (P28074 60-263): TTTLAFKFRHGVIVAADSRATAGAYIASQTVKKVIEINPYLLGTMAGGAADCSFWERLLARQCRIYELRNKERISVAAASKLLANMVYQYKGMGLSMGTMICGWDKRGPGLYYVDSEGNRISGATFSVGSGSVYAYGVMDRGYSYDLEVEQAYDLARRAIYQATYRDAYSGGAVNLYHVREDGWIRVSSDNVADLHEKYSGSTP

## CC(C)=CC[C@]12Oc3cc(O)c([C@H]4C=C(C)C[C@H](c5ccc(O)cc5O)[C@H]4C(=O)c4ccc(O)cc4O)c(O)c3C(=O)[C@@]1(O)Oc1cc(O)ccc12 [Sanggenon C]
  pIC50: 5.40
